Source: US20040259865A1, “Pyrimidone compounds and pharmaceutical compositions containing the same” (priority 2001, published 2004)
Where two headings read alike, the source gives them in different places.

Tests used:
[1] = system: SD IGS rats; test: Evaluation of defecation-promoting action (Tables 8 and 10); format: in vivo, rat
Excerpt: For example, the defecation-promoting actions of 8-phenyltheophylline (“8-PT” in the table below) and 5-[6-amino-8-(3-fluorophenyl)-9H-9-purinyl]-1-methyl-1,2-di hydro-2-pyridinone (Compound II in the table below) disclosed in Example Number 5 described in WO 2001/2400 were as shown below. 8-PT can be easily produced according to the description of Drug Development Research 47: 45-53 (1999), or is easily available as a commercial product (in this test, it was purchased from Sigma).
That is, SD IGS rats (6- to 7-weeks-old, from Charles River) were placed in cages (3 animals/cage) and preliminarily allowed food and water ad libitum and raised for 1 week. On the day of the experiment, their weight was measured, a water-absorbing sheet was placed below each cage, and the animals were fasted but allowed water ad libitum throughout the experiment. Thee hours after fasting was initiated, the fecal pellets were recovered from each cage and observed for abnormality before the experiment, and then the compound suspended in 0.5% (w/v) methyl cellulose (MC) was orally administered in a dose of 5 ml/kg. On one hand, 0.5% (w/v) MC only was orally given to the control group. After administration of the compound, the rats were returned to the cage provided with a new water-absorbing sheet, and 180 minutes after the administration, the fecal pellets on the water-absorbing sheet were recovered from each cage, and the external appearance was observed, and the number of fecal pellets was counted. The number of fecal pellets is expressed per each cage.

[2] = system: guinea pig distal colon longitudinal muscles; details: cited from earlier work; for EC50: KCl in the presence of tetrodotoxin, read-out: Relaxing action EC50
[3] = system: guinea pig distal colon longitudinal muscles; details: electrical stimulation, cited from earlier work; for pA2 value of the antagonistic action: against relaxing action of NECA
[4] = system: SD IGS rats; test: Contribution of A2b inhibition to defecation-promoting action (Test Example 3); format: in vivo, rat; details: 180 minutes
Experimental: (§1) SD IGS rats (6-weeks-old, from Charles River) were placed in cages (3 animals/cage) and preliminarily allowed food and water ad libitum and raised for 1 week. On the day of the experiment, their weight was measured, a water-absorbing sheet was placed below each cage, and the animals were fasted but allowed water ad libitum throughout the experiment. Three hours after fasting was initiated, the fecal pellets were recovered from each cage and observed for abnormality before the experiment, and then the compound suspended or dissolved in 0.5% (W/V) methyl cellulose (MC) was orally administered into each rat in a dose of 5 ml/kg. On one hand, 0.5% (W/V) MC only was orally given to the control group. After administering the compound, the rats were returned to the cage provided with anew water-absorbing sheet of known weight, and 180 minutes after the administration, the fecal pellets on the water-absorbing sheet were recovered from each cage, and the external appearance was observed, and the number of fecal pellets was counted. The number of fecal pellets is expressed per each cage (Table 4). After the fecal pellets were recovered, the water-absorbing sheet was weighed, and the weight determined by subtracting the initial weight of the water-adsorbing sheet from the weight after the experiment was regarded as the volume of urine and expressed as the volume of urine per 100 g of the body weight (Table 4).
After administering the compounds, the rats were returned to the cage under which a new water-absorbing sheet had been installed, and after 180 minutes, the fecal pellets on the water-absorbing sheet were recovered from each cage, and the outward appearance was observed and the number of fecal pellets was counted. The number of fecal pellets is expressed per cage (Table 5).

[5] = system: SD IGS rats; test: Defecation-promoting action in rat (Test Example 2); format: in vivo; details: for The number of fecalpellets/3 rats: 180 minutes after administration
Experimental: as §1

[6] = Urine volume / diuretic action in rat (Test Example 2); format: in vivo; details: for Urine Volume (g/100 g body weight): 180 minutes
Experimental: as §1

[7] = system: colon tract; test: Inhibitory effect of adenosine receptor antagonist on suppressing action of NECA on Carbachol-stimulated contraction of the colon tract; parameters: species or system rat; details: for Contraction (%) Mean: Carbachol 0.3 μM + NECA 1 μM = 0%, Carbachol 0.3 μM = 100%
Experimental: (§2) The abdomen of a rat under anesthesia with ether was opened, and from the rectum to the cecum was excised therefrom and soaked in ice-cooled Tyrode solution (containing 136 mM NaCl, 2.7 mM KCl, 0.4 mM NaH2PO4.2H2O, 5.6 mM glucose, 11.9 mM NaHCO3, 1 mM MgCl2.6H2O, 1.8 mM CaCl2). Surrounding connective tissues were removed, and the intestinal tract was cut at positions apart by 1.5 cm from the rectum and by 3 cm from the cecum, to give a colon tract of about 3 cm in full length. Both the terminals of the colon tract were pinched respectively with Serrefines (trade name) to which a string had been connected, and the colon tract with the side of the cecum facing upward was immediately suspended in a Magnus tube filled with Tyrode solution previously warmed at 37° C., and then equilibrated by bubbling with a gas (O2/CO2=95/5). The string connected to the Serrefines (trade name) at the side of the cecum was suspended, and the change in the length of the colon tract was detected with an amplifier for strain pressure (Nihon Kohden Corporation).
(§3) In the experiment, 3 samples were used.

[8] = system: colon tract; test: Inhibitory effect of NECA on Carbachol-stimulated contraction of the colon tract; parameters: species or system rat; details: Carbachol 1.44 μM (singly added) = 100%
Experimental: as §2, with “Surrounding” for “The abdomen of a rat under anesthesia with ether was opened, and from the rectum to the cecum was excised therefrom and soaked in ice-cooled Tyrode solution (containing 136 mM NaCl, 2.7 mM KCl, 0.4 mM NaH2PO4.2H2O, 5.6 mM glucose, 11.9 mM NaHCO3, 1 mM MgCl2.6H2O, 1.8 mM CaCl2). Surrounding”
as §3

[9] = system: colon tract; test: Contraction of the colon tract with Carbachol; parameters: species or system rat
Experimental: as §2
Carbachol (Sigma) at each concentration diluted 100-fold was added accumulatively in a volume of 1/100 to the Magnus tube, and the change in the length of the colon tract was measured, and the length thereof in the absence of Carbachol was regarded as 0% contraction, and the length thereof in the presence of 1.44 μM Carbachol was regarded as 100% contraction. In the experiment, 3 samples were used.

[10] = 3 mg/kg oral, Table 8, n = 4 cages/group
[11] = 10 mg/kg oral, Table 8, n = 4 cages/group
[12] = against NECA, KCl + tetrodotoxin

Structure (SMILES): Cn1cc(-n2c(-c3cccc(F)c3)nc3c(N)ncnc32)ccc1=O [Compound II, 5-[6-amino-8-(3-fluorophenyl)-9H-9-purinyl]-1-methyl-1,2-di hydro-2-pyridinone]
- The number of fecalpellets/3 rats ([1]; 1 mg/kg oral, Table 8, n = 4 cages/group): 12.5 ± 1.44 fecalpellets/3 rats
- The number of fecalpellets/3 rats [1, 10]: 18.5 ± 1.94 fecalpellets/3 rats
- The number of fecalpellets/3 rats [1, 11]: 20.75 ± 1.70 fecalpellets/3 rats

Structure (SMILES): OC[C@H]1O[C@@H](n2cnc3c(NC4CCCC4)ncnc32)[C@H](O)[C@@H]1O [CPA]
- EC50 [2]: 12.6 µM

Structure (SMILES): CCCn1c(=O)c2[nH]c(C3CCCC3)nc2n(CCC)c1=O [DPCPX]
- pA2 value ([2]; against CPA, KCl + tetrodotoxin): 7.0
- pA2 value [2, 12]: 6.6
- pA2 value of the antagonistic action [3]: 8.8

Structure (SMILES): CCCn1c(=O)c2nc(C34CC5CC(CC3C5)C4)[nH]c2n(CCC)c1=O [KW 3902]
- The number of fecalpellets/3 rats ([4]; 1 mg/kg together with KW 6002 (1 mg/kg)): 18.25 ± 1.49 fecalpellets/3 rats
- The number of fecalpellets/3 rats ([4]; 1 mg/kg, without KW 6002): 9.00 ± 1.08 fecalpellets/3 rats
- The number of fecalpellets/3 rats ([5]; 0.3 mg/kg oral): 10.67 ± 2.08 fecalpellets/3 rats
- The number of fecalpellets/3 rats ([5]; 1 mg/kg oral): 14.50 ± 1.18 fecalpellets/3 rats
- The number of fecalpellets/3 rats ([5]; 3 mg/kg oral): 12.83 ± 1.66 fecalpellets/3 rats
- Dose at which the defecation-promoting action reaches the maximum ([5]; rat, oral): 1 mg/kg
- Defecation-promoting action (in words) ([5]; rat, oral, Table 4): exhibits a defecation-promoting action
- Urine Volume (g/100 g body weight) ([6]; 0.3 mg/kg oral): 2.08 ± 0.04 g/100 g body weight
- Urine Volume (g/100 g body weight) ([6]; 1 mg/kg oral): 2.15 ± 0.09 g/100 g body weight
- Urine Volume (g/100 g body weight) ([6]; 3 mg/kg oral): 2.01 ± 0.06 g/100 g body weight
- Diuretic action (comparison in words) ([6]; rat, oral): stronger diuretic action than Compound I

Structure (SMILES): CCNC(=O)[C@H]1O[C@@H](n2cnc3c(N)nc(NCCc4ccc(CCC(=O)O)cc4)nc32)[C@H](O)[C@@H]1O [CGS21680, 2-p-[2-carboxyethyl]phenetylamino-5′-N-ethylarboxyamide adenosine]
- Relaxing action (in words) ([2]; 1 μM, KCl + tetrodotoxin): did not act thereon
- Relaxing action (in words) [3]: very weak

Structure (SMILES): CCCN1C(=O)N2CC(CC)N=C2c2[nH]c(C34CC5CC(CC3C5)C4)nc21 (stereo not shown) [KW 20274]
- Contraction (%) Mean ([7]; antagonist 0.1 μM): −8.2%
- Contraction (%) Mean ([7]; antagonist 0.4 μM): −26.0%
- Contraction (%) Mean ([7]; antagonist 1.4 μM): −40.0%
- Contraction (%) Mean ([7]; antagonist 4.4 μM): −71.0%
- Inhibition of the suppressing effect of NECA on the contraction (in words) ([7]; rat colon tract, Carbachol + NECA): did not show any inhibitory effect

Structure (SMILES): Cn1c(=O)c2[nH]c(-c3ccccc3)nc2n(C)c1=O [Example 8-PT, 8-phenyltheophylline]
- The number of fecalpellets/3 rats [1, 10]: 8.75 ± 1.75 fecalpellets/3 rats
- The number of fecalpellets/3 rats [1, 11]: 13.75 ± 0.85 fecalpellets/3 rats
- pA2 value [2, 12]: 5.7
- pA2 value of the antagonistic action [3]: 6.5

Structure (SMILES): CCNC(=O)[C@H]1O[C@@H](n2cnc3c(N)ncnc32)[C@H](O)[C@@H]1O [NECA, 5′-N-ethylcarboxyamide adenosine]
- Contraction (%) Mean ([8]; NECA 0.1 μM): 89.0%
- Contraction (%) Mean ([8]; NECA 0.4 μM): 75.3%
- Contraction (%) Mean ([8]; NECA 14.4 μM): 54.9%
- EC50 [2]: 10.4 µM

Structure (SMILES): C[N+](C)(C)CCOC(N)=O [Carbachol]
- Contraction (%) Mean ([9]; Carbachol 0.01 μM, 1.44 μM Carbachol = 100%): 1.4%
- Contraction (%) Mean ([9]; Carbachol 0.04 μM, 1.44 μM Carbachol = 100%): 24.5%
- Contraction (%) Mean ([9]; Carbachol 0.14 μM, 1.44 μM Carbachol = 100%): 69.1%
- Contraction (%) Mean ([9]; Carbachol 0.44 μM, 1.44 μM Carbachol = 100%): 87.0%
- Contraction (%) Mean ([9]; Carbachol 1.44 μM (defined as 100%)): 100.0%

Structure (SMILES): Nc1nc(N)c(-c2ccncc2)c(-c2cccc(F)c2)n1 [Example 1, 6-(3-Flurophenyl)-5-(4-pyridyl)-2,4-pyrimidine diamine]
- The number of fecalpellets/3 rats ([1]; 3 mg/kg oral, Table 10, n = 6 cages/group): 14.83 ± 1.82 fecalpellets/3 rats
- The number of fecalpellets/3 rats ([1]; 10 mg/kg oral, Table 10, n = 6 cages/group): 23.17 ± 2.94 fecalpellets/3 rats
